Assay results published in PMC2614900 (Journal of the American Chemical Society, 2008).

How the values were obtained:
IL-12 = conditions: at 10 μg mL^-1; cited from earlier work
HIV-1 = assay: Inhibition of HIV-1 replication in MT-2 lymphocytes; conditions: for TI, therapeutic index (CC50/IC50): MT-2 CC50 / HIV-1 IC50
[1] = Cytotoxicity against non-infected MT-2 lymphocytes; conditions: human
[2] = test system: tumor necrosis factor-α (TNFα); conditions: at 10 μg mL^-1; cited from earlier work
HIV = conditions: cited from earlier work
IL-10 = conditions: at 10 μg mL^-1; cited from earlier work
[3] = test system: noninfected H9 lymphocytes; conditions: cited from earlier work

Row | Compound | TI, therapeutic index (CC50/IC50) (HIV-1) | CC50 (MT-2 lymphocytes) [µM] | further results
1 | C=C[C@@]1(C)COC(=O)[C@]12O[C@]1(c3ccccc3)[C@H](C2=O)[C@H]2[C@H]([C@H](C)CCC=C(C)C)CC=C(C)[C@H]21 [2b, biyouyanagin A] | 7.5 | – | LPS-induced cytokine production, IL-12 (IL-12): 0.02; IC50 (HIV-1; Human immunodeficiency virus 1, Lymphocyte, read-out: HIV-1 IC50): 26 µM; CC50 [1]: 198 µM; LPS-induced cytokine production, TNFα [2]: 0.48; EC50, inhibition of HIV replication in H9 lymphocytes (HIV): 0.798 mg/L; LPS-induced cytokine production, IL-10 (IL-10): 0.03; EC50, noninfected H9 lymphocytes [3]: > 25 mg/L
2 | 24-epi-biyouyanagin A [2a] | – | 285 | –
3 | C=C[C@@]1(C)COC(=O)[C@]12OC(c1ccccc1)=CC2=O [compound 18, hyperolactone C] | 32.0 | 925 | –
4 | Cc1cn([C@H]2C[C@H](N=[N+]=[N-])[C@@H](CO)O2)c(=O)[nH]c1=O [AZT, reference compound] | >641 | > 50 | –
5 | 4-epi-hyperolactone C [compound 16] | – | 462 | –
